# Data from patent US5270334A, “4-methoxy-5-methyl-pyran-3-ol natural products and derivatives thereof” (E. R. Squibb & Sons, Inc., priority 1992, dated 1993).
# Like-named read-outs stand apart in the source and are kept apart here.
# Experiments:
# Assay type in all cases: cell-based
# Candida albicans [1] = test: Antibacterial and antifungal activity of lanomycin, agar dilution assay (Table 4)
# Method: (§1) *Minimal inhibitory concentrations were determined by agar dilution assay
# Candida guillermondii = test: as above; conditions: SC2996, Candida guillermondii SC 2996
# Method: as §1
# Candida tropicalis [2] = test: as above; conditions: SC2963, Candida tropicalis SC 2963
# Method: as §1
# Escherichia coli = test: as above; conditions: SC8294; Escherichia coli SC 8294
# Method: as §1
# Klebsiella aerogenes = test: as above; conditions: SC10440; Klebsiella aerogenes SC 10440
# Method: as §1
# Proteus mirabilis = test: as above; conditions: SC3855; Proteus mirabilis SC 3855
# Method: as §1
# Pseudomonas aeruginosa = test: as above; conditions: SC8329; Pseudomonas aeruginosa SC 8329
# Method: as §1
# Staphylococcus aureus = test: as above
# Method: as §1
# Trichophyton rubrum [3] = test: as above; conditions: SC9199, Trichophyton rubrum SC 9199
# Method: as §1
# Candida albicans [4] = test: Anticandidal activity of lanomycin, agar dilution method (Table 5); conditions: for MIC: 10^4 cfu
# Method: (§2) MICs were determined by the agar dilution method using a medium composed of tryptone (5 g), malt extract (3 g), glucose (10 g) and yeast extract (3 g) in 1 L distiled water; 10^4 cfu of the test organism was applied to the agar.
# Candida glabrata [5] = test: as above; conditions: for MIC: Nakaseomyces glabratus, 10^4 cfu
# Method: as §2
# Gram negative bacteria = test: antibacterial activity of lanomycin; conditions: in words, Table 4
# Method: as §1
# Gram positive bacteria = test: antibacterial activity of lanomycin; conditions: in words, Table 4
# Method: as §1
# Aspergillus fumigatus = test: MIC of scopularin, agar dilution assay (K-10 agar); conditions: SC2100, 18 h; Aspergillus fumigatus SC 2100
# Method: (§3) The following methodology was used to determine the miniumum inhibitory concentration (hereinafter referred to as MIC) of scopularin.
# (§4) The aerobic test organisms were grown in approximately 15-20ml of Antibiotic Assay Broth (Difco) by inoculating (in tubes) the broth with a loopful of the organism from a BHI (Difco) agar slant. The inoculated tubes were incubated at 37° C. for 18 to 24 hours. These cultures are assumed to contain 10^7 colony forming units (CFU) per ml and the cultures were diluted 1:100 to give a final inoculum level of 10^5 CFU; dilutions were made with Yeast Beef Broth (Difco).
# (§5) Scopularin was dissolved in an appropriate diluent at a concentration of 1,000 μg/ml. Two-fold dilutions were made in Yeast Beef Broth (Difco), resulting in a range from 1000 µg/ml to 0.5 μg/ml. 1.5 ml of each dilution was placed into individual petri dishes to which 13.5ml of K-10 agar was added. The composition of K-10 agar is:
# (§6) The final drug concentration in the agar ranged from 100 μg/ml to 0.05 μg/ml. Organism growth control plates containing agar only were prepared and inoculated before and after the test plates. The organisms were applied to the agar surface of each plate with a Denly Multipoint Inoculator (which delivers approximately 0.001 ml of each organism) resulting in a final inoculum of 10^4 CFU on the agar surface.
# (§7) The plates were incubated at 37° C. for 18 hours and the MICs determined. The MIC is the lowest concentration of compound inhibiting growth of the organism.
# Candida albicans [6] = test: MIC of scopularin, agar dilution assay (K-10 agar)
# Method: as §3, §4, §5, §6, §7
# Candida glabrata [7] = test: MIC of scopularin, agar dilution assay (K-10 agar); conditions: Nakaseomyces glabratus, SC11, 18 h; Candida glabrata SC 11,267
# Method: as §3, §4, §5, §6, §7
# Candida guilliermondii = test: MIC of scopularin, agar dilution assay (K-10 agar); conditions: Meyerozyma guilliermondii
# Method: as §3, §4, §5, §6, §7
# Candida krusei = test: MIC of scopularin, agar dilution assay (K-10 agar); conditions: Pichia kudriavzevii
# Method: as §3, §4, §5, §6, §7
# Candida parakrusei = test: MIC of scopularin, agar dilution assay (K-10 agar)
# Method: as §3, §4, §5, §6, §7
# Candida pseudotropicalis = test: MIC of scopularin, agar dilution assay (K-10 agar); conditions: Kluyveromyces marxianus, SC11, 18 h; Candida pseudotropicalis SC 11,241
# Method: as §3, §4, §5, §6, §7
# Candida stellatoidea = test: MIC of scopularin, agar dilution assay (K-10 agar); conditions: Candida albicans, SC2211, 18 h; Candida stellatoidea SC 2211
# Method: as §3, §4, §5, §6, §7
# Candida tropicalis [8] = test: MIC of scopularin, agar dilution assay (K-10 agar)
# Method: as §3, §4, §5, §6, §7
# Epidermophyton floccosum = test: MIC of scopularin, agar dilution assay (K-10 agar); conditions: SC9185, 18 h; Epidermophyton floccosum SC 9185
# Method: as §3, §4, §5, §6, §7
# Microsporum canis = test: MIC of scopularin, agar dilution assay (K-10 agar); conditions: SC9237, 18 h; Microsporum canis SC 9237
# Method: as §3, §4, §5, §6, §7
# [9] = system: Trichophyton mentagrophytes; test: MIC of scopularin, agar dilution assay (K-10 agar); conditions: SC2637, 18 h; Trichophyton mentagrophytes SC 2637
# Method: as §3, §4, §5, §6, §7
# Trichophyton rubrum [10] = test: MIC of scopularin, agar dilution assay (K-10 agar); conditions: SC9199, 18 h; Trichophyton rubrum SC 9199
# Method: as §3, §4, §5, §6, §7
# [11] = SC5314, Candida albicans SC 5314
# [12] = SC11422, Candida albicans SC 11422
compound,measurement,setting,value
C/C=C/C=C/C=C(\C)[C@H]1OC[C@@H](C)[C@@H](OC)[C@@H]1OC(=O)CN (relative stereo) [Lanomycin],MIC,Candida albicans [1]; [11],> 100 mg/L
same,MIC,Candida albicans [1]; [12],100 mg/L
same,MIC,Candida guillermondii,1.6 mg/L
same,MIC,Candida tropicalis [2],25 mg/L
same,MIC,Escherichia coli,> 100 mg/L
same,MIC,Klebsiella aerogenes,> 100 mg/L
same,MIC,Proteus mirabilis,> 100 mg/L
same,MIC,Pseudomonas aeruginosa,> 100 mg/L
same,MIC,"Staphylococcus aureus; SC1276, Staphylococcus aureus SC 1276",> 100 mg/L
same,MIC,"Staphylococcus aureus; SC2399, Staphylococcus aureus SC 2399",> 100 mg/L
same,MIC,Trichophyton rubrum [3],1.6 mg/L
same,MIC,Candida albicans [4]; [11],> 100 mg/L
same,MIC,"Candida albicans [4]; SC9177, Candida albicans SC 9177",100 mg/L
same,MIC,"Candida albicans [4]; SC9721, Candida albicans SC 9721",100 mg/L
same,MIC,"Candida albicans [4]; SC10102, Candida albicans SC 10102",> 100 mg/L
same,MIC,"Candida albicans [4]; SC10580, Candida albicans SC 10580",> 100 mg/L
same,MIC,"Candida albicans [4]; SC10584, Candida albicans SC 10584",50 mg/L
same,MIC,"Candida albicans [4]; SC10585, Candida albicans SC 10585",100 mg/L
same,MIC,Candida albicans [4]; [12],100 mg/L
same,MIC,"Candida albicans [4]; SC12734, Candida albicans SC 12734",> 100 mg/L
same,MIC,"Candida albicans [4]; SC14021, Candida albicans SC 14021",> 100 mg/L
same,activity against the C. albicans species tested,"Candida albicans [4]; in words, Table 5",active
same,MIC,"Candida glabrata [5]; SC9342, Candida glabrata SC 9342",0.8 mg/L
same,MIC,"Candida glabrata [5]; SC11267, Candida glabrata SC 11267",25 mg/L
same,activity against certain strains of C. glabrata,"Candida glabrata [5]; in words, Table 5",good activity
same,activity against Gram negative bacteria,Gram negative bacteria,not active
same,activity against Gram positive bacteria,Gram positive bacteria,not active
"CCC/C=C/C=C/C=C(\C)[C@H]1OC[C@@H](C)[C@@H](OC)[C@@H]1OC(=O)CN (relative stereo) [Scopularin, (2α, 3β, 4α, 5α)-Tetrahydro-4-methoxy-5-methyl-2-(1-methyl-1,3,5-nonatrienyl)-2H-pyran-3-ol, aminoacetate ester]",MIC,Aspergillus fumigatus,50 mg/L
same,MIC,"Candida albicans [6]; SC10, 18 h, Candida albicans SC 10,102",100 mg/L
same,MIC,"Candida albicans [6]; SC10, 18 h, Candida albicans SC 10,580",50 mg/L
same,MIC,"Candida albicans [6]; SC10, 18 h, Candida albicans SC 10,584",25 mg/L
same,MIC,"Candida albicans [6]; SC10, 18 h, Candida albicans SC 10,585",50 mg/L
same,MIC,"Candida albicans [6]; SC11, 18 h, Candida albicans SC 11,422",50 mg/L
same,MIC,"Candida albicans [6]; SC12, 18 h, Candida albicans SC 12,734 (Bacilysin^R)",100 mg/L
same,MIC,"Candida albicans [6]; SC14, 18 h, Candida albicans SC 14,021 (Aculeacin^R)",50 mg/L
same,MIC,"Candida albicans [6]; SC5314, 18 h, Candida albicans SC 5314",50 mg/L
same,MIC,"Candida albicans [6]; SC9177, 18 h, Candida albicans SC 9177",50 mg/L
same,MIC,"Candida albicans [6]; SC9721, 18 h, Candida albicans SC 9721",50 mg/L
same,MIC,Candida glabrata [7],25 mg/L
same,MIC,"Candida guilliermondii; SC2210, 18 h, Candida guilliermondii SC 2210",12.5 mg/L
same,MIC,"Candida guilliermondii; SC2996, 18 h, Candida guilliermondii SC 2996",0.4 mg/L
same,MIC,"Candida krusei; SC2967, 18 h",0.4 mg/L
same,MIC,"Candida krusei; SC2968, 18 h, Candida krusei SC 2968, read-out: MIC",1.6 mg/L
same,MIC,"Candida krusei; SC2969, 18 h, Candida krusei SC 2969, read-out: MIC",1.6 mg/L
same,MIC,"Candida parakrusei; SC2621, 18 h, Candida parakrusei SC 2621",0.8 mg/L
same,MIC,"Candida parakrusei; SC2966, 18 h, Candida parakrusei SC 2966",1.6 mg/L
same,MIC,Candida pseudotropicalis,25 mg/L
same,MIC,Candida stellatoidea,25 mg/L
same,MIC,"Candida tropicalis [8]; SC10, 18 h, Candida tropicalis SC 10,597",25 mg/L
same,MIC,"Candida tropicalis [8]; SC2963, 18 h, Candida tropicalis SC 2963 (AmphoB^R)",6.3 mg/L
same,MIC,"Candida tropicalis [8]; SC8159, 18 h, Candida tropicalis SC 8159",25 mg/L
same,MIC,"Candida tropicalis [8]; SC9861, 18 h, Candida tropicalis SC 9861 (AmphoB^R)",25 mg/L
same,MIC,Epidermophyton floccosum,0.2 mg/L
same,MIC,Microsporum canis,0.4 mg/L
same,MIC,[9],0.2 mg/L
same,MIC,Trichophyton rubrum [10],0.4 mg/L
